From patent US5070210A, “Novel ketenimines as intermediates for insecticides” (ICI Americas Inc., priority 1990, dated 1991)

Tests used:
Assay type in all cases: in vivo
[1] = test system: Cabbage Looper [Trichoplusia ni (Hubner)]; experiment: Cabbage looper insecticidal test; settings: second-instar larvae, percent in solution; 3-5 days
Summary of the method: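 Steps: dilute compound in 50-50 acetone-water from 0.1% downward; immerse cotyledon pieces 2-3 s and dry; place in humid petri dishes with five second-instar larvae; record mortality at 3-5 days. Dosage-mortality curves yield LC50 as percent in solution.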

[2] = test system: Housefly [Musca domestica]; experiment: Housefly insecticidal test; settings: μg per 25 female flies; mortality after 48 hours
Summary of the method: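 Residual contact test: acetone dilution, 0.01% peanut oil spreader, solvent evaporated; 25 ♀ flies (1-2 d old) per cage; sugar-water plug; 48 h mortality read. LC50 in μg/25 female flies, from dose-mortality curves; top dose 100 μg/25 flies.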

[3] = test system: Tobacco Budworm [Heliothis virescens (Fabricius)] eggs; experiment: Tobacco budworm egg test; settings: 2-day old eggs, percent in solution
Summary of the method: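 Mortality of dipped eggs served as read-out, recorded after untreated controls hatched and began feeding. Treatments used acetone solutions from 0.1% downward, with eggs incubated at 78° F; LC50 is expressed as percent of compound in the solution.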

[4] = test system: Maize weevil [Sitophilus Zeamais (Motschulsky)]; experiment: Maize weevil insecticidal test; settings: adult weevils, percent in solution; 48 hours
Description: The compounds in Tables 1 and 2 above were tested for insecticidal activity using the following testing procedures. LC50 values, based on the results of these tests and calculated according to dosage-mortality curves, are expressed in Table 3.
Maize weevil [Sitophilus Zeamais (Motschulsky)]:
Test compounds were diluted in a 50:50 acetone:water solution. Four corn seeds [Zea mays (L.)] which had been immersed in test solutions for 2-3 seconds and allowed to dry were placed in containers together with 10 adult weevils. The containers were covered and kept at a temperature of about 25° C. Mortality was recorded after 48 hours. Test concentrations ranged from 0.01% down to that at which 50% mortalilty occurred. The LC50 values are expressed below in Table 3 under the heading "MW" in terms of percent of the test compound in solution.

Structure (SMILES)	LC50, CL [1] [%]	LC50, HF [2] [µg]	LC50, TBW, E (TBW-E) [3] [%]	LC50, MW [4] [%]
Cc1cc(N=C(OCc2ccc(F)c(Oc3ccc(Cl)cc3)c2)C(C)C)ccc1F [Compound 399]	0.0012	< 100	0.025	> 0.01
Cc1cc(N=C(OCc2ccc(F)c(Oc3ccccc3)c2)C(C)C)ccc1F [Compound 400]	0.0007	< 100	0.025	> 0.01
Cc1cccc(N=C(OCc2ccc(F)c(Oc3ccc(Cl)cc3)c2)C(C)C)c1 [Compound 401]	0.0017	< 100	0.04	> 0.01
Cc1ccc(N=C(OCc2cccc(Oc3ccc(F)cc3)c2)C(C)C)cc1Cl [Compound 402]	> 0.1	< 100	> 0.1	> 0.01
Cc1ccc(N=C(OCc2cccc(Oc3ccc(Cl)cc3)c2)C(C)C)cc1Cl [Compound 403]	> 0.1	< 100	> 0.1	> 0.01
Cc1ccc(N=C(OCc2ccc(F)c(Oc3ccc(Cl)cc3)c2)C(C)C)cc1Cl [Compound 404]	> 0.1	< 100	0.025	> 0.01
Cc1cccc(N=C(OCc2cccc(Oc3ccc(F)cc3)c2)C(C)C)c1 [Compound 405]	> 0.1	< 100	> 0.1	> 0.01
Cc1ccc(N=C(OCc2ccc(F)c(Oc3ccc(Cl)cc3)c2)C(C)C)cc1C [Compound 406]	> 0.1	< 100	< 0.1	> 0.01
Cc1cc(N=C(OCc2ccc(F)c(Oc3ccc(Cl)cc3)c2)C(C)C)ccc1Br [Compound 407]	> 0.1	> 100	0.05	> 0.01
COc1ccc(N=C(OCc2ccc(F)c(Oc3ccc(F)cc3)c2)C(C)C)cc1Cl [Compound 408]	0.0015	< 100	0.02	> 0.01
COc1ccc(N=C(OCc2ccc(F)c(Oc3ccccc3)c2)C(C)C)cc1Cl [Compound 409]	0.0017	< 100	0.025	> 0.01
COc1ccc(N=C(OCc2ccc(F)c(Oc3ccc(Cl)cc3)c2)C(C)C)cc1Cl [Compound 410]	> 0.1	< 100	> 0.1	> 0.01
CCc1ccccc1N=C(OCc1cccc(Oc2ccc(F)cc2)c1)C(C)C [Compound 411]	> 0.1	< 100	> 0.1	> 0.01
COc1ccc(N=C(OCc2ccc(F)c(Oc3ccc(Cl)cc3)c2)C(C)C)cc1 [Compound 412]	> 0.1	< 100	> 0.1	> 0.01
CC(C)C(=Nc1ccc(F)c(I)c1)OCc1cccc(Oc2ccc(Cl)cc2)c1 [Compound 413]	0.0007	< 100	0.04	> 0.01
CC(C)C(=Nc1ccc(S(C)(=O)=O)cc1)OCc1ccc(F)c(Oc2ccc(F)cc2)c1 [Compound 414]	0.0024	< 100	> 0.1	> 0.01
C=C(C)C(=Nc1ccc(F)c(Cl)c1)OCc1ccc(F)c(Oc2ccc(Cl)cc2)c1 [Compound 415]	0.00075	< 100	0.035	> 0.01
C=C(C)C(=Nc1ccc(F)c(Cl)c1)OCc1ccc(F)c(Oc2ccccc2)c1 [Compound 416]	0.00027	< 100	0.018	> 0.01
C=C(C)C(=Nc1ccc(F)c(Cl)c1)OCc1cccc(Oc2ccccc2)c1 [Compound 417]	0.0008	< 100	0.04	> 0.01

Structure (SMILES)	LC50, CL [1] [%]	LC50, HF [2] [µg]	LC50, TBW, E (TBW-E) [3] [%]	LC50, MW [4] [%]
CC(C)C(=Nc1ccc(OC(F)(F)C(F)Cl)cc1)OCc1cccc(Oc2ccccc2)c1 (centres unmarked) [Compound 418]	> 0.1	> 100	> 0.1	> 0.01
CC(C)C(=Nc1ccc(OC(F)(F)C(F)Cl)cc1)OCc1ccc(F)c(Oc2ccccc2)c1 (centres unmarked) [Compound 419]	> 0.1	> 100	> 0.1	> 0.01
CC(C)C(=Nc1ccc(OCC(F)(F)F)c(Cl)c1)OCc1cccc(Oc2ccc(F)cc2)c1 [Compound 420]	0.00075	> 100	0.05	> 0.01
CC(C)C(=Nc1ccc(OCC(F)(F)F)c(Cl)c1)OCc1cccc(Oc2ccc(Cl)cc2)c1 [Compound 421]	0.002	> 100	< 0.1	> 0.01
CC(C)C(=Nc1ccc(OCC(F)(F)F)cc1)OCc1ccc(F)c(Oc2ccccc2)c1 [Compound 422]	0.00075	< 100	0.05	> 0.01
CC(C)C(=Nc1ccc(OCC(F)(F)F)cc1)OCc1cccc(Oc2ccccc2)c1 [Compound 423]	0.002	> 100	> 0.1	> 0.01
CC(C)C(=Nc1ccc(OCC(F)(F)F)c(Cl)c1)OCc1ccc(F)c(Oc2ccccc2)c1 [Compound 424]	0.00038	> 100	0.035	> 0.01
CC(C)C(=Nc1ccc(OCC(F)(F)F)c(Cl)c1)OCc1cccc(Oc2ccccc2)c1 [Compound 425]	0.00075	> 100	> 0.1	> 0.01
CCOc1cccc(N=C(OCc2ccc(F)c(Oc3ccc(F)cc3)c2)C(C)C)c1 [Compound 426]	0.002	> 100	> 0.1	> 0.01
CC(C)C(=Nc1ccc(C(F)(F)F)cc1Cl)OCc1cccc(Oc2ccc(F)cc2)c1 [Compound 427]	< 0.1	> 100	> 0.1	> 0.01
CC(C)C(=Nc1ccc(C(F)(F)F)cc1Cl)OCc1ccc(F)c(Oc2ccccc2)c1 [Compound 428]	0.0017	> 100	> 0.1	> 0.01
CC(C)C(=Nc1ccc(OCC(F)(F)F)c(F)c1)OCc1cccc(Oc2ccc(Cl)cc2)c1 [Compound 429]	0.0017	> 100	< 0.1	> 0.01
C=C(C)C(=Nc1ccc(C(F)(F)F)cc1)OCc1cccc(Oc2ccccc2)c1 [Compound 430]	0.001	< 100	0.032	0.004
CC(C)C(=Nc1ccc(C(F)(F)F)c(Br)c1)OCc1ccc(F)c(Oc2ccccc2)c1 [Compound 434]	0.0017	< 100	> 0.1	0.009
COc1ccc(N=C(OCc2ccc(F)c(Oc3ccccc3)c2)C(C)C)cc1F [Compound 435]	0.002	< 100	0.04	> 0.01
CC(C)C(=Nc1cccc(OC(F)(F)F)c1)OCc1ccc(F)c(Oc2ccc(Cl)cc2)c1 [Compound 436]	0.00075	< 100	< 0.1	> 0.01
CC(C)C(=Nc1cccc(OC(F)(F)F)c1)OCc1ccc(F)c(Oc2ccccc2)c1 [Compound 437]	0.00075	< 100	0.025	> 0.01
CCc1ccc(N=C(OCc2cccc(Oc3ccc(F)cc3)c2)C(C)C)cc1Cl [Compound 438]	0.0009	> 100	< 0.1	> 0.01
CCOc1ccc(N=C(OCc2ccc(F)c(Oc3ccccc3)c2)C(C)C)cc1F [Compound 439]	0.00045	> 100	> 0.1	> 0.01
